Data as given in ChEMBL document CHEMBL3351921, “Structure-activity relationships (SAR) and structure-kinetic relationships (SKR) of pyrrolopiperidinone acetic acids as CRTh2 antagonists” (Bioorg Med Chem Lett, 2014).
In brackets after ≈: the same amount, converted by molar mass. Activity calls are given as the source filed them. No cut-off for these calls is given here.

Experiments:
[1] = biological target: T1, Prostaglandin D2 receptor 2 (Homo sapiens, UniProt Q9Y5Y4); assay: Antagonist activity at CRTh2 (unknown origin) stably expressed in PGD2-stimulated CHO.K1 cells preincubated for 30 mins by radio-labelled [35S]-GTPgammaS binding assay; assay type: functional, cell-based
T1 sequence (Q9Y5Y4 whole entry): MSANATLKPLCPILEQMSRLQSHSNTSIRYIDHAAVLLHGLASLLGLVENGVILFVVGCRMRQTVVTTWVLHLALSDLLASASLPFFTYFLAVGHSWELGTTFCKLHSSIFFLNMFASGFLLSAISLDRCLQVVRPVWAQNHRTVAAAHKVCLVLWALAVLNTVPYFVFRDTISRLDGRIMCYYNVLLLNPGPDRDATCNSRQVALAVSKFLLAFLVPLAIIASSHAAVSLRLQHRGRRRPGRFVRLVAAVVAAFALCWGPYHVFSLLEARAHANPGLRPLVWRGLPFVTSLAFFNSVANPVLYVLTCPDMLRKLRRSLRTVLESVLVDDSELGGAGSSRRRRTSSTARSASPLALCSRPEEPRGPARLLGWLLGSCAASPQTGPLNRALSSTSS

[2] = Lipophilicity, log D of the compound by shake-flask method; assay type: physicochemical; conditions: octanol/water
[3] = biological target: T1, Prostaglandin D2 receptor 2; assay: Antagonist activity at CRTh2 (unknown origin) stably expressed in PGD2-stimulated CHO.K1 cells preincubated for 15 mins by radio-labelled [35S]-GTPgammaS binding assay; assay type: functional, cell-based
[4] = biological target: T2, Thromboxane A2 receptor (Homo sapiens) (UniProt P21731); assay: Inhibition of at prostanoid TP receptor (unknown origin) at 10 uM
T2 sequence (whole entry): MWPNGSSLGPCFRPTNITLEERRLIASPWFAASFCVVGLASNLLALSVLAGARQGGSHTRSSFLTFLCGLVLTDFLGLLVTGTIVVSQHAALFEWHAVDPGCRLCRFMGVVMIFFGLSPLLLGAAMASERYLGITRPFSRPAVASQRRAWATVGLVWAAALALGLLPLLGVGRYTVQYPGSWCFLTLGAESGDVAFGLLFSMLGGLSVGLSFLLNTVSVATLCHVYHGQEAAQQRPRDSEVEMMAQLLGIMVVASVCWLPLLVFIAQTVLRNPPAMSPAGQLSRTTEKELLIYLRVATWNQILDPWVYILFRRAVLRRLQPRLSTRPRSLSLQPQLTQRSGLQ

[5] = biological target: T1, Prostaglandin D2 receptor 2; assay: Antagonist activity at CRTh2 (unknown origin) stably expressed in PGD2-stimulated CHO.K1 cells preincubated for 60 mins by radio-labelled [35S]-GTPgammaS binding assay; assay type: functional, cell-based
[6] = Aqueous solubility of the compound at pH 7.4; assay type: physicochemical
[7] = biological target: T1, Prostaglandin D2 receptor 2; assay: Antagonist activity at CRTh2 (unknown origin) stably expressed in PGD2-stimulated CHO.K1 cells preincubated for 1 hr by radio-labelled [35S]-GTPgammaS binding assay; assay type: functional, cell-based
[8] = Aqueous solubility of the compound at pH 1; assay type: physicochemical
[9] = biological target: T1, Prostaglandin D2 receptor 2; assay: Antagonist activity at CRTh2 (unknown origin) stably expressed in PGD2-stimulated CHO.K1 cells preincubated for 120 mins by radio-labelled [35S]-GTPgammaS binding assay; assay type: functional, cell-based
[10] = biological target: T3, Prostaglandin D2 receptor (Homo sapiens) (UniProt Q13258); assay: Inhibition of at prostanoid DP1 receptor (unknown origin) at 10 uM
T3 sequence (whole entry): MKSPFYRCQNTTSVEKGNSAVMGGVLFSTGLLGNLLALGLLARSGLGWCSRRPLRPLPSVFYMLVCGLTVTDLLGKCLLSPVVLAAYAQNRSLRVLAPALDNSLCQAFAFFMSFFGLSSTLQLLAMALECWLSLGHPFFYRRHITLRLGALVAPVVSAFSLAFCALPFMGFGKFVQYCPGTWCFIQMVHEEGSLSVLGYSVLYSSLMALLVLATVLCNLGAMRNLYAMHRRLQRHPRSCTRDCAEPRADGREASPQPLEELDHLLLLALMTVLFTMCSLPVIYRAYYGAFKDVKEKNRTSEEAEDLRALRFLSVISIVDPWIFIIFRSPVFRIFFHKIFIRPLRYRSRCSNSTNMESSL

[11] = biological target: T1, Prostaglandin D2 receptor 2; assay: Antagonist activity at CRTh2 (unknown origin) stably expressed in PGD2-stimulated CHO.K1 cells preincubated for 180 mins by radio-labelled [35S]-GTPgammaS binding assay; assay type: functional, cell-based
[12] = biological target: T4, Prostaglandin D2 receptor 2 (Homo sapiens) (UniProt Q9Y5Y4); conditions: CHO.K1
T4 sequence (whole entry): T1 sequence (Q9Y5Y4 whole entry)
Description: Antagonist activity at CRTh2 (unknown origin) stably expressed in PGD2-stimulated CHO.K1 cells assessed as dissociation half-life at 5 to 10 times IC50 after 2 hrs by radio-labelled [35S]-GTPgammaS binding assay

[13] = biological target: T1, Prostaglandin D2 receptor 2; assay: Antagonist activity at CRTh2 (unknown origin) stably expressed in CHO.K1 cells co-mixing the compound and PGD2 by radio-labelled [35S]-GTPgammaS binding assay; assay type: functional, cell-based
[14] = biological target: T1, Prostaglandin D2 receptor 2; assay: Antagonist activity at CRTh2 (unknown origin) stably expressed in CHO.K1 cells preincubated for 1 hr by radio-labelled [35S]-GTPgammaS binding assay in presence of 4% HSA; assay type: functional, cell-based
[15] = Dissociation constant, pKa of the compound by potentiometric method; assay type: physicochemical
[16] = Apparent permeability across basolateral to apical side of human Caco2 cells at pH 7.4; assay type: ADME, cell-based; conditions: Caco-2, pH 7.4
[17] = Apparent permeability across apical to basolateral side of human Caco2 cells at pH 7.4; assay type: ADME, cell-based; conditions: Caco-2, pH 7.4
[18] = AUC (0 to infinity) in rat at 10 mg/kg, po; assay type: ADME, organism-based; parameters: time infinity, dose 10 mg/kg, route oral; conditions: plasma
[19] = Clearance in rat at 1 mg/kg, iv; assay type: ADME, organism-based; parameters: dose 1 mg/kg, route intravenous; conditions: in vivo
[20] = Volume of distribution at steady state in rat at 1 mg/kg, iv; assay type: ADME, organism-based; parameters: dose 1 mg/kg, route intravenous; conditions: in vivo, read-out: Vdss
[21] = AUC (0 to infinity) in rat at 1 mg/kg, iv; assay type: ADME, organism-based; parameters: time infinity, dose 1 mg/kg, route intravenous; conditions: plasma
[22] = Cmax in rat at 10 mg/kg, po; assay type: ADME, organism-based; parameters: dose 10 mg/kg, route oral; conditions: in vivo
[23] = Terminal half life in rat at 10 mg/kg, po; assay type: ADME, organism-based; parameters: dose 10 mg/kg, route oral; conditions: in vivo, read-out: beta t1/2 (converted)
[24] = Cmax in rat at 1 mg/kg, iv; assay type: ADME, organism-based; parameters: dose 1 mg/kg, route intravenous; conditions: in vivo
[25] = Oral bioavailability in rat at 10 mg/kg; assay type: ADME, organism-based; conditions: in vivo
[26] = Terminal half life in rat at 1 mg/kg, iv; assay type: ADME, organism-based; parameters: dose 1 mg/kg, route intravenous; conditions: in vivo, read-out: beta t1/2 (converted)
Cavia porcellus = species on record: Cavia porcellus; assay: Antiinflammatory activity in guinea pig eosinophilia model; assay type: functional, organism-based
Rattus norvegicus [27] = assay: Volume of distribution at steady state in rat assessed as 2-(2-methyl-4-oxo-3-(2-(phenylsulfonyl)benzyl)-4,5,6,7-tetrahydro-1H-pyrrolo[3,2-c]pyridin-1-yl)acetic acid at 1 mg/kg, iv; assay type: ADME, organism-based; parameters: dose 1 mg/kg, route intravenous; conditions: in vivo
Rattus norvegicus [28] = assay: Terminal half life in rat assessed as 2-(2-methyl-4-oxo-3-(2-(phenylsulfonyl)benzyl)-4,5,6,7-tetrahydro-1H-pyrrolo[3,2-c]pyridin-1-yl)acetic acid at 10 mg/kg, po; assay type: ADME, organism-based; parameters: dose 10 mg/kg, route oral; conditions: in vivo
Rattus norvegicus [29] = assay: Terminal half life in rat assessed as 2-(2-methyl-4-oxo-3-(2-(phenylsulfonyl)benzyl)-4,5,6,7-tetrahydro-1H-pyrrolo[3,2-c]pyridin-1-yl)acetic acid at 1 mg/kg, iv; assay type: ADME, organism-based; parameters: dose 1 mg/kg, route intravenous; conditions: in vivo
Rattus norvegicus [30] = assay: AUC (0 to infinity) in rat assessed as 2-(2-methyl-4-oxo-3-(2-(phenylsulfonyl)benzyl)-4,5,6,7-tetrahydro-1H-pyrrolo[3,2-c]pyridin-1-yl)acetic acid at 10 mg/kg, po; assay type: ADME, organism-based, Plasma; parameters: time infinity, dose 10 mg/kg, route oral; conditions: in vivo
Rattus norvegicus [31] = assay: Oral bioavailability in rat assessed as 2-(2-methyl-4-oxo-3-(2-(phenylsulfonyl)benzyl)-4,5,6,7-tetrahydro-1H-pyrrolo[3,2-c]pyridin-1-yl)acetic acid at 10 mg/kg; assay type: ADME, organism-based; conditions: in vivo
Rattus norvegicus [32] = assay: Cmax in rat assessed as 2-(2-methyl-4-oxo-3-(2-(phenylsulfonyl)benzyl)-4,5,6,7-tetrahydro-1H-pyrrolo[3,2-c]pyridin-1-yl)acetic acid at 10 mg/kg, po; assay type: ADME, organism-based; parameters: dose 10 mg/kg, route oral; conditions: in vivo
Rattus norvegicus [33] = assay: AUC (0 to infinity) in rat assessed as 2-(2-methyl-4-oxo-3-(2-(phenylsulfonyl)benzyl)-4,5,6,7-tetrahydro-1H-pyrrolo[3,2-c]pyridin-1-yl)acetic acid at 1 mg/kg, iv; assay type: ADME, organism-based, Plasma; parameters: time infinity, dose 1 mg/kg, route intravenous; conditions: in vivo
Rattus norvegicus [34] = assay: Cmax in rat assessed as 2-(2-methyl-4-oxo-3-(2-(phenylsulfonyl)benzyl)-4,5,6,7-tetrahydro-1H-pyrrolo[3,2-c]pyridin-1-yl)acetic acid at 1 mg/kg, iv; assay type: ADME, organism-based; parameters: dose 1 mg/kg, route intravenous; conditions: in vivo

Structure (SMILES) | IC50 [1] | IC50 [3] | inhibition [4] | IC50 [5] | IC50 [7] | IC50 [9] | inhibition [10] | IC50 [11] | T1/2 [12] | IC50 [13] | pKa [15] | Papp A→B [17] | AUC(0-inf) [18] | clearance [19] | Vd [20] | AUC(0-inf) [21] | Cmax [22] | half-life [23] | Cmax [24] | bioavailability [25] | also measured
Cc1c(Cc2ccccc2S(=O)(=O)c2ccccc2)c2c(n1CC(=O)O)CCNC2=O | 4.5 nM | 4.9 nM | < 30% | 4 nM | 5 nM | 3 nM | < 30% | 3 nM | 2.3 h | 6.5 nM | 3 | 0.01 ×10⁻⁶ cm/s |  |  |  |  |  |  |  |  | logD [2]: 0.9; solubility [6]: 870 µg/mL (≈ 1980 µM); solubility [8]: 500 µg/mL (≈ 1140 µM); IC50 [14]: 10 nM; Papp B→A [16]: 0.1 ×10⁻⁶ cm/s
Cc1c(Cc2ccccc2S(=O)(=O)c2ccccc2)c2c(n1CC(=O)O)CC(C)(C)NC2=O | 5.5 nM | 6.3 nM | < 30% | 4.2 nM | 4 nM | 2.9 nM | < 30% | 2.1 nM | 10 h | 7.7 nM | 3 | 1.1 ×10⁻⁶ cm/s | 275 ng·h/mL | 8.4 mL/min/kg | 0.19 L/kg | 2050 ng·h/mL | 126 ng/mL | 150 min | 5490 ng/mL | 1.3% | half-life [26]: 48 min; Activity (Cavia porcellus): Active
CCOC(=O)Cn1c(C)c(Cc2ccccc2S(=O)(=O)c2ccccc2)c2c1CCNC2=O |  |  |  |  |  |  |  |  |  |  |  |  |  |  |  |  |  |  |  |  | Vdss (Rattus norvegicus [27]): 0.25 L/kg; beta t1/2 (Rattus norvegicus [28]): 7.4 h; beta t1/2 (Rattus norvegicus [29]): 18 min; AUC (Rattus norvegicus [30]): 4623 ng·h/mL; F (Rattus norvegicus [31]): 27%; Cmax (Rattus norvegicus [32]): 842 ng/mL; AUC (Rattus norvegicus [33]): 1726 ng·h/mL; Cmax (Rattus norvegicus [34]): 5370 ng/mL
COc1ccc(S(=O)(=O)c2ccc(F)cc2)c(Cc2c3c(n(CC(=O)O)c2C)CCNC3=O)c1 | 4.1 nM | 6.9 nM | < 30% | 3.6 nM | 7.1 nM | 2.4 nM | < 30% | 2.1 nM | 23 h | 10 nM | 3.1 |  | 76 ng·h/mL | 27 mL/min/kg | 0.31 L/kg | 613 ng·h/mL | 36 ng/mL | 132 min | 1960 ng/mL | 1.2% | half-life [26]: 18 min
